Experimental data taken from paper PMC3639963, “A New Class of Small Molecule Inhibitor of BMP Signaling” (PLoS ONE, 2013).

Tests used:
Test in all cases: Nanosyn kinase profiling
Type in all cases: biochemical
[1] = molecular target: T1, DYRK2 (Homo sapiens, UniProt Q92630); conditions: read-out: Percentage inhibition; for inhibition at 0.1 µM: 0.1 µM inhibitor; for inhibition at 1 µM: 1 µM inhibitor
T1 construct: purchased Nanosyn (enzymatic panel); SGC in-house recombinant human kinases (DSF panel); Invitrogen (ALK1-6)
T1 sequence (Q92630 1-601): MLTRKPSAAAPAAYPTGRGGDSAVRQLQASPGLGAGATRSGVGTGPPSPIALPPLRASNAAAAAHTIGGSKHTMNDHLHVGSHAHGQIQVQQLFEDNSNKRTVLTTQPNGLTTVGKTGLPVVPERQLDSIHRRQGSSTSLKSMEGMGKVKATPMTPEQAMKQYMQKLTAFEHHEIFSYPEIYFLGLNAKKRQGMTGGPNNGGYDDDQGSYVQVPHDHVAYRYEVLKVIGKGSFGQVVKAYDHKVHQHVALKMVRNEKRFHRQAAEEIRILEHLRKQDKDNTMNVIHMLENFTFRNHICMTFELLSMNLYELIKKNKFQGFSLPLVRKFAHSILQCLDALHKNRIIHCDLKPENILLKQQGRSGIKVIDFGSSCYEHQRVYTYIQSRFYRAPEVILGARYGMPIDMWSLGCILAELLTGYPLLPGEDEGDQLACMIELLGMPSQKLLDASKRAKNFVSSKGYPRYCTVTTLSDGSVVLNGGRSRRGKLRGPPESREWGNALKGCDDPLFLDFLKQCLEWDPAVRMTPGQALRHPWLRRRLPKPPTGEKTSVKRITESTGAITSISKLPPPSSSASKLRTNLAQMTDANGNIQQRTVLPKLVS
Protocol: (§1) Percentage inhibition was determined for each kinase at both 0.1 µM and 1 µM inhibitor concentration (supplemental Table S2). […]. […]. When visualized on a kinase phylogenetic tree, these were primarily clustered within the receptor tyrosine kinases (TKs) as well as the calmodulin-dependent kinases (CAMKs) (Figure 2C).
(§2) Inhibitor selectivity profiling against 200 human kinases at 0.1 and 1 µM inhibitor concentration was performed by Nanosyn (www.nanosyn.com).

[2] = molecular target: T2, RSK3 (Homo sapiens, UniProt Q15349); conditions: read-out: Percentage inhibition; for inhibition at 0.1 µM: 0.1 µM inhibitor; for inhibition at 1 µM: 1 µM inhibitor
T2 construct: purchased Nanosyn (enzymatic panel); SGC in-house recombinant human kinases (DSF panel); Invitrogen (ALK1-6)
Protocol: as §1, §2

[3] = molecular target: T3, CK1α (Homo sapiens, UniProt P48729); conditions: read-out: Percentage inhibition; for inhibition at 0.1 µM: 0.1 µM inhibitor; for inhibition at 1 µM: 1 µM inhibitor
T3 construct: purchased Nanosyn (enzymatic panel); SGC in-house recombinant human kinases (DSF panel); Invitrogen (ALK1-6)
Protocol: as §1, §2

[4] = molecular target: T4, INSR (Homo sapiens, UniProt P06213); conditions: read-out: Percentage inhibition; for inhibition at 0.1 µM: 0.1 µM inhibitor; for inhibition at 1 µM: 1 µM inhibitor
T4 construct: purchased Nanosyn (enzymatic panel); SGC in-house recombinant human kinases (DSF panel); Invitrogen (ALK1-6)
Protocol: as §1, §2

[5] = molecular target: T5, CSK (Homo sapiens, UniProt P41240); conditions: read-out: Percentage inhibition; for inhibition at 0.1 µM: 0.1 µM inhibitor; for inhibition at 1 µM: 1 µM inhibitor
T5 construct: purchased Nanosyn (enzymatic panel); SGC in-house recombinant human kinases (DSF panel); Invitrogen (ALK1-6)
Protocol: as §1, §2

[6] = molecular target: T6, AURKB (Homo sapiens, UniProt Q96GD4); conditions: read-out: Percentage inhibition; for inhibition at 0.1 µM: 0.1 µM inhibitor; for inhibition at 1 µM: 1 µM inhibitor
T6 construct: purchased Nanosyn (enzymatic panel); SGC in-house recombinant human kinases (DSF panel); Invitrogen (ALK1-6)
Protocol: as §1, §2

[7] = molecular target: T7, ARG (Homo sapiens, UniProt P42684); conditions: for inhibition at 0.1 µM / inhibition at 1 µM: read-out: Percentage inhibition; for inhibition at 1 µM: 1 µM inhibitor
T7 construct: purchased Nanosyn (enzymatic panel); SGC in-house recombinant human kinases (DSF panel); Invitrogen (ALK1-6)
Protocol: as §1, §2

[8] = molecular target: T8, PAK1 (Homo sapiens, UniProt Q13153); conditions: read-out: Percentage inhibition; for inhibition at 0.1 µM: 0.1 µM inhibitor; for inhibition at 1 µM: 1 µM inhibitor
T8 construct: purchased Nanosyn (enzymatic panel); SGC in-house recombinant human kinases (DSF panel); Invitrogen (ALK1-6)
Protocol: as §1, §2

[9] = molecular target: T9, AXL (Homo sapiens, UniProt P30530); conditions: read-out: Percentage inhibition; for inhibition at 0.1 µM: 0.1 µM inhibitor; for inhibition at 1 µM: 1 µM inhibitor
T9 construct: purchased Nanosyn (enzymatic panel); SGC in-house recombinant human kinases (DSF panel); Invitrogen (ALK1-6)
T9 sequence (P30530 26-894): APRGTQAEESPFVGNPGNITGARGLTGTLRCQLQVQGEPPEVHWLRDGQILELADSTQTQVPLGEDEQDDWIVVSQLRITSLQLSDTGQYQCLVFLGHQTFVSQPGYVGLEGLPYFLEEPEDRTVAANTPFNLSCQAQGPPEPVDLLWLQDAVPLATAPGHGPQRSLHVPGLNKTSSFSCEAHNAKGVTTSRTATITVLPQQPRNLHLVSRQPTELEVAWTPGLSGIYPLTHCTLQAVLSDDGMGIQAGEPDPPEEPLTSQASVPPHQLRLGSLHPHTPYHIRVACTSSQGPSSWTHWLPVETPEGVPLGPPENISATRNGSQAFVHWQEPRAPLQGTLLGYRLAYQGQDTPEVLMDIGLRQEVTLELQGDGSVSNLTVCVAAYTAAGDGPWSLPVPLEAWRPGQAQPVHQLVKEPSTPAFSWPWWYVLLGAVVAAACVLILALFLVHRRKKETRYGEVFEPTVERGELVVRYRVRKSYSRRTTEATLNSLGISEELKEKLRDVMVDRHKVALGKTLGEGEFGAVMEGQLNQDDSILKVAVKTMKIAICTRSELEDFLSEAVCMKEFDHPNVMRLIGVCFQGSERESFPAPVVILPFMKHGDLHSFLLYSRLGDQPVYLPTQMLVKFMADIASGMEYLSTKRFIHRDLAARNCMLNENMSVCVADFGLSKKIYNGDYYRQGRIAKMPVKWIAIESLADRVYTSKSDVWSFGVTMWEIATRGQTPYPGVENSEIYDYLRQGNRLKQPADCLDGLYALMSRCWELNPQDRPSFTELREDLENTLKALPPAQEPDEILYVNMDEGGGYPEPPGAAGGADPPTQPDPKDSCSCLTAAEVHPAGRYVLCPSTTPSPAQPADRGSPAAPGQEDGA
Protocol: as §1, §2

[10] = molecular target: T10, LCK (Homo sapiens, UniProt P06239); conditions: read-out: Percentage inhibition; for inhibition at 0.1 µM: 0.1 µM inhibitor; for inhibition at 1 µM: 1 µM inhibitor
T10 construct: purchased Nanosyn (enzymatic panel); SGC in-house recombinant human kinases (DSF panel); Invitrogen (ALK1-6)
Protocol: as §1, §2

[11] = molecular target: T11, P38γ (Homo sapiens, UniProt P53778); conditions: read-out: Percentage inhibition; for inhibition at 0.1 µM: 0.1 µM inhibitor; for inhibition at 1 µM: 1 µM inhibitor
T11 construct: purchased Nanosyn (enzymatic panel); SGC in-house recombinant human kinases (DSF panel); Invitrogen (ALK1-6)
T11 sequence (P53778 1-367): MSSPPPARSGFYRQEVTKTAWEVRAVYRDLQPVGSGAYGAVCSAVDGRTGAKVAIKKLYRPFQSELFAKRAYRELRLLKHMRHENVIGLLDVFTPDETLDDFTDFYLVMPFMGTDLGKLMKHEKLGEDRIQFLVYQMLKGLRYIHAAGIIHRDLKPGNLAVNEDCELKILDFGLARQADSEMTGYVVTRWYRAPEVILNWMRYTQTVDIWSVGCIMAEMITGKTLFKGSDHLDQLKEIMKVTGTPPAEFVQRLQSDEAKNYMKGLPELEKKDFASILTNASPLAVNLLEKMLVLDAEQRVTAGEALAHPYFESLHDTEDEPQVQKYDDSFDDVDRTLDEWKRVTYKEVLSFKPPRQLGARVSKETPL
Protocol: as §1, §2

[12] = molecular target: T12, FGFR3 (Homo sapiens, UniProt P22607); conditions: read-out: Percentage inhibition; for inhibition at 0.1 µM: 0.1 µM inhibitor; for inhibition at 1 µM: 1 µM inhibitor
T12 construct: purchased Nanosyn (enzymatic panel); SGC in-house recombinant human kinases (DSF panel); Invitrogen (ALK1-6)
Protocol: as §1, §2

T8 sequence (Q13153 whole entry): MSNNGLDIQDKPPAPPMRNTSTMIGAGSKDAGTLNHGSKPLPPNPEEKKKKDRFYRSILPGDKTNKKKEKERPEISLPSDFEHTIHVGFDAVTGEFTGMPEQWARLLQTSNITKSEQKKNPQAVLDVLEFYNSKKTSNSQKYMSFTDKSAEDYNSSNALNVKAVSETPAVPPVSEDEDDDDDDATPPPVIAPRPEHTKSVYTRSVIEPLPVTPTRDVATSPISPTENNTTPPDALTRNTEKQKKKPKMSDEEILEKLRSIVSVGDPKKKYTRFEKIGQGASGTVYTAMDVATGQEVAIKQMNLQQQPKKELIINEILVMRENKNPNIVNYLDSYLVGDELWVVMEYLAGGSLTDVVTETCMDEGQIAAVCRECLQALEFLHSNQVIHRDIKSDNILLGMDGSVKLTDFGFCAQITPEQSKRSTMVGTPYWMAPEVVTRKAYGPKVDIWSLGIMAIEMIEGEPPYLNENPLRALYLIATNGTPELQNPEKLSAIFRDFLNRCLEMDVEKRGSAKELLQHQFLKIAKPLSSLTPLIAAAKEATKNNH
T2 sequence (Q15349 whole entry): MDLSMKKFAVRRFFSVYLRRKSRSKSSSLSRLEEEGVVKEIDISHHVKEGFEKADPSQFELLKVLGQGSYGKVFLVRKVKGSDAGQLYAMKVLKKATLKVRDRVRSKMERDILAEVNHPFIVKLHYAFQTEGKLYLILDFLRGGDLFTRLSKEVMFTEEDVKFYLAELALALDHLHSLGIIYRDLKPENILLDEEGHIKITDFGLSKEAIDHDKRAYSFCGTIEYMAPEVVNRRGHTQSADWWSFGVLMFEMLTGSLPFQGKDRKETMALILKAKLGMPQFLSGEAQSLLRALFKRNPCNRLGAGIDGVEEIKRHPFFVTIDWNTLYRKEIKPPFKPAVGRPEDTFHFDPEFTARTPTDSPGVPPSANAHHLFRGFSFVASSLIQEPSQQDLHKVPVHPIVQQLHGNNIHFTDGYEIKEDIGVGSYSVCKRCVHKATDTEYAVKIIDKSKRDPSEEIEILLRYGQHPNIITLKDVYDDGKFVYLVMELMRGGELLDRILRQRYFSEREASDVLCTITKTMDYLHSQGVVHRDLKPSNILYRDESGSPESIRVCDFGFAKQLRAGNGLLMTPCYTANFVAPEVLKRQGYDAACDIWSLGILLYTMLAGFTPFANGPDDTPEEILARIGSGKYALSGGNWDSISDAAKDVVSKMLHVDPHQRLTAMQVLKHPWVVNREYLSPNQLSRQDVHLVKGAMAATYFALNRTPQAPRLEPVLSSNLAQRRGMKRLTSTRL
T12 sequence (P22607 23-806): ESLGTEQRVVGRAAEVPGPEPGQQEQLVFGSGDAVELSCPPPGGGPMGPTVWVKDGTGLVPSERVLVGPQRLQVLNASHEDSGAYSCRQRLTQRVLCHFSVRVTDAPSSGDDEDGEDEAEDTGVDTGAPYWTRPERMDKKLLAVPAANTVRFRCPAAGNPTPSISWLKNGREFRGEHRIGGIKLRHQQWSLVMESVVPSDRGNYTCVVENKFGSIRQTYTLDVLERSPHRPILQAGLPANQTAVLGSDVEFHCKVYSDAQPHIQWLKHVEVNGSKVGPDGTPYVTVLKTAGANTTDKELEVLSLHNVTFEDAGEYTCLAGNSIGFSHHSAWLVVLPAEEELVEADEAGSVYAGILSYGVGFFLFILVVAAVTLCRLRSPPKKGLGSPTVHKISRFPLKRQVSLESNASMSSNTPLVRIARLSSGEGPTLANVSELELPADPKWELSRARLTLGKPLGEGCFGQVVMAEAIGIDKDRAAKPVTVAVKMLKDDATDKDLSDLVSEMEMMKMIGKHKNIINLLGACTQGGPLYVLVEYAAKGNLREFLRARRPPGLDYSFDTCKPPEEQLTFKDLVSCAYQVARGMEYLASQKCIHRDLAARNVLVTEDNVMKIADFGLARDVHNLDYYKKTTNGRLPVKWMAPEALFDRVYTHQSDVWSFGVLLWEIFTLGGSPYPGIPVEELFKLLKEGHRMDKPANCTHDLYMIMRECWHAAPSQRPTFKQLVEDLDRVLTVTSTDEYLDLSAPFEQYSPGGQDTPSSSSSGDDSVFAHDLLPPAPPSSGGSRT
T7 sequence (P42684 whole entry): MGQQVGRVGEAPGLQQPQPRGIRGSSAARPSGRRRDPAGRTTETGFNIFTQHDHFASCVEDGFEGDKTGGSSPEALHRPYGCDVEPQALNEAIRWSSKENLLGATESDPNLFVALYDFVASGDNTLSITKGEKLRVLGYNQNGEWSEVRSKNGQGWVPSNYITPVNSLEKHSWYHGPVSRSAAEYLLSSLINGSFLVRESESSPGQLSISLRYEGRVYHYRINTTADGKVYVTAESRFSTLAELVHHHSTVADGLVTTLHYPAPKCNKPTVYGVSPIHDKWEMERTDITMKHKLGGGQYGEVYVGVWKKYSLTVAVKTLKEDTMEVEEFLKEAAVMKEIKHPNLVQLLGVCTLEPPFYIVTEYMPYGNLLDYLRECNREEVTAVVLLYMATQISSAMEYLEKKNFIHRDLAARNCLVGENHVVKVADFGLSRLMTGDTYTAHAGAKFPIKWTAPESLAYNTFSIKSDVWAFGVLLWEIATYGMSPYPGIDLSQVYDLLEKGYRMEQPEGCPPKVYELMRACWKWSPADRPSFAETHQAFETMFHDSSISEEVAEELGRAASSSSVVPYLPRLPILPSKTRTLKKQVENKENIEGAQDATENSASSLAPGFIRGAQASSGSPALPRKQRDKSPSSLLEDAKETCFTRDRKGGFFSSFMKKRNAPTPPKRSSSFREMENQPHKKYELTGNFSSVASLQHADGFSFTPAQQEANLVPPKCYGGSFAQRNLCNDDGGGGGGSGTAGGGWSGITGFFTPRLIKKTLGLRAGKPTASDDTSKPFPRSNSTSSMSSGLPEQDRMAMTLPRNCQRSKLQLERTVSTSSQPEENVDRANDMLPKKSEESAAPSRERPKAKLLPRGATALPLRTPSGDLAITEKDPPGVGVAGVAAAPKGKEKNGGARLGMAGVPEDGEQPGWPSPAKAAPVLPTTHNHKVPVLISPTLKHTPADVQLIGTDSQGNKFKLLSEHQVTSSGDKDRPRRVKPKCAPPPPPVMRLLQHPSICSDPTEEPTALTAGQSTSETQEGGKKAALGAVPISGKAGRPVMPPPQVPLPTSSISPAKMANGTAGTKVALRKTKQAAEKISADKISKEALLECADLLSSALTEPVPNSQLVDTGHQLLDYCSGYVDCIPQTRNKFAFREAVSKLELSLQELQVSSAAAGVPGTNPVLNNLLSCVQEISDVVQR
T3 sequence (P48729 whole entry): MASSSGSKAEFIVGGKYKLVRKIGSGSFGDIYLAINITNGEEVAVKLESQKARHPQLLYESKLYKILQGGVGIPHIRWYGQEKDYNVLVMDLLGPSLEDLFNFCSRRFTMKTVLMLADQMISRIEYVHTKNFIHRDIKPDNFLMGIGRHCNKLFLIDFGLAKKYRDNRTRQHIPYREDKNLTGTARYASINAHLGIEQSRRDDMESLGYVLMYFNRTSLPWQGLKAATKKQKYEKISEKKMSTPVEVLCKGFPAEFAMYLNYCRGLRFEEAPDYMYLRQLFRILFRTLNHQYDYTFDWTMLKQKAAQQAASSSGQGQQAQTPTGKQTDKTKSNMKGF
T5 sequence (P41240 whole entry): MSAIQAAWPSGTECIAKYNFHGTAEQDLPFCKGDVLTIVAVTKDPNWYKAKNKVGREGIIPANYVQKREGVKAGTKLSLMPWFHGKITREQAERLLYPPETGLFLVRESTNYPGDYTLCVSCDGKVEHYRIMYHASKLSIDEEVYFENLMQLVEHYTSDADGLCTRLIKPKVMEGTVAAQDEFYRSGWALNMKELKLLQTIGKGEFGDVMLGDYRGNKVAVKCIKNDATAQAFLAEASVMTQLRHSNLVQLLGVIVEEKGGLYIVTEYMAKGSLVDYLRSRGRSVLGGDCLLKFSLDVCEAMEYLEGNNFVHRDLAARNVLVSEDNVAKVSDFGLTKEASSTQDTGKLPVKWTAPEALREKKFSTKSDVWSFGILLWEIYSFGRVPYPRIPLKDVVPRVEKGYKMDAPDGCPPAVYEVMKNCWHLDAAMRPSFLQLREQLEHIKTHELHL
T6 sequence (Q96GD4 whole entry): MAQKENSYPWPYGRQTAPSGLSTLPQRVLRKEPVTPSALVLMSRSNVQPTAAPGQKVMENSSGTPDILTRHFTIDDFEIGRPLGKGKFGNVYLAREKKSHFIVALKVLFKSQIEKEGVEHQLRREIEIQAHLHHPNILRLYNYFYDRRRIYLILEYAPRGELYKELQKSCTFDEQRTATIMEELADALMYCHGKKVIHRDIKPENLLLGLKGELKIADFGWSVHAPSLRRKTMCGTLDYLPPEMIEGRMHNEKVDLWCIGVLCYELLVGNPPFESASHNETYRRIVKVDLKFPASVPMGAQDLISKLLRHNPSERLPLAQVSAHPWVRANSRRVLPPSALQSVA
T10 sequence (P06239 whole entry): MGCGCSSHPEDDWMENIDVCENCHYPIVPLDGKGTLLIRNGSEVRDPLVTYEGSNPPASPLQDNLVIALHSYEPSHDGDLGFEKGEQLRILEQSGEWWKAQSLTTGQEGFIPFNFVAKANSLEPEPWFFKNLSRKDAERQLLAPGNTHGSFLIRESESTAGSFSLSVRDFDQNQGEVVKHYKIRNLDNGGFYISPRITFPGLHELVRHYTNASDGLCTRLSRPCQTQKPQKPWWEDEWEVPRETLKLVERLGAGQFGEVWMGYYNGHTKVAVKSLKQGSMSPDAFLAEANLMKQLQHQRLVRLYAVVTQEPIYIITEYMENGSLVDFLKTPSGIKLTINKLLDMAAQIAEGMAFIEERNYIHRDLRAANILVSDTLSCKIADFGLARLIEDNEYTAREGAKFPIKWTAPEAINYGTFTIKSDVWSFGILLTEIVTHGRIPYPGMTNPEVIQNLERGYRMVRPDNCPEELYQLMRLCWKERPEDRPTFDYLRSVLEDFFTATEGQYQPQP

SMILES	inhibition at 0.1 µM [1]	inhibition at 1 µM [1]	inhibition at 0.1 µM [2]	inhibition at 1 µM [2]	inhibition at 0.1 µM [3]	inhibition at 1 µM [3]	inhibition at 0.1 µM [4]	inhibition at 1 µM [4]	inhibition at 0.1 µM [5]	inhibition at 1 µM [5]	inhibition at 0.1 µM [6]	inhibition at 1 µM [6]	inhibition at 0.1 µM ([7]; 0.1 µM inhibitor)	inhibition at 1 µM [7]	inhibition at 0.1 µM [8]	inhibition at 1 µM [8]	inhibition at 0.1 µM [9]	inhibition at 1 µM [9]	inhibition at 0.1 µM [10]	inhibition at 1 µM [10]	also measured
COc1cc(-c2cc(-c3cccc(O)c3)cnc2N)cc(OC)c1OC [K02288, 3-[6-amino-5-(3,4,5-trimethoxy-phenyl)-pyridin-3-yl]-phenol]	-1%	-3%	0.6%	1.1%	0%	7.2%	-4%	0.7%	3.2%	13%	0.3%	1.5%	66%	85%	0%	0.6%	0.9%	1.5%	13%	58%	Percentage inhibition ([7]; 0.1 µM inhibitor, 0.1 µM): > 50%; inhibition at 0.1 µM [11]: -1%; inhibition at 1 µM [11]: -1%; inhibition at 0.1 µM [12]: -2%; inhibition at 1 µM [12]: 0.2%
c1ccc2c(-c3cnn4cc(-c5ccc(N6CCNCC6)cc5)cnc34)ccnc2c1 [LDN-193189]	2.3%	0.2%	1.5%	5.6%	14%	56%	3.8%	4.5%	3.3%	6%	2.3%	15%	33%	73%	4.3%	4.9%	-4%	1.1%	12%	46%	inhibition at 0.1 µM [11]: 1.2%; inhibition at 1 µM [11]: 1.3%; inhibition at 0.1 µM [12]: 5%; inhibition at 1 µM [12]: 16%
